Experimental data published in patent publication US8697656B2, “Compounds, in particular peptides, compositions comprising them and cosmetic and dermo-pharmaceutical uses” (SEDERMA, priority 2009, dated 2014).
Non-standard residues stand in square brackets, D forms with d. Residues, ends and D or L forms follow the SMILES beside them. *: point of attachment. Met(O2) = CS(=O)(=O)CC[CH](N)C(=O)O; Palmitoyl = CCCCCCCCCCCCCCCC(=O)*; Ava = NCCCCC(=O)O

How the values were obtained:
[1] = tested on: Normal human dermal fibroblasts (NHF); experiment: ELISA test on normal human dermal fibroblasts (NHF): macromolecules in culture supernatants; assay type: cell-based; conditions: Table 7 Test 1
Procedure: ELISA Test on Normal Human Dermal Fibroblasts (NHF)
This test examines the dermal molecules.
Normal human dermal fibroblasts are cultured in multi-well plates. The cells either are or are not placed in contact with the test substances for 3 days. The culture supernatants are removed and the quantity of macromolecules present (collagen I, fibronectin, collagen IV and hyaluronic acid) is assayed by ELISA.

dermal NHF = experiment: Immunostaining method for collagen I on dermal NHF (Table 7); assay type: cell-based, human; conditions: Table 7 Test 2
Description: Table 7 Showing % Differences in Collagen I in the Dermis Compared to the Control for Dioxygenated Peptide Compounds According to the Immunostaining Method or to ELISA Test on Dermal NHF

Compound | Collagen I in the dermis, Test 1 (% difference compared to the control) ([1]; 4 ppm) | Collagen I in the dermis, Test 1 (% difference compared to the control) ([1]; 6 ppm) | Collagen I in the dermis, Test 2 (% difference compared to the control) (dermal NHF; 4 ppm) | Collagen I in the dermis, Test 2 (% difference compared to the control) (dermal NHF; 6 ppm) | Collagen I in the dermis, Test 2 (% difference compared to the control) (dermal NHF; 2 ppm) | Collagen I in the dermis, Test 1 (% difference compared to the control) ([1]; 2 ppm)
Pal-K-MO2-T-K-OH: Dioxygenated peptide compound, SEQ ID NO 33 (Palmitoyl-K[Met(O2)]TK-OH; SMILES CCCCCCCCCCCCCCCC(=O)N[C@@H](CCCCN)C(=O)N[C@@H](CCS(C)(=O)=O)C(=O)N[C@H](C(=O)N[C@@H](CCCCN)C(=O)O)[C@@H](C)O) | +45% | +194% | +192% | +217% | – | –
CCCCCCCCCCCCCCCC(=O)NC(CCS(C)(=O)=O)C(=O)NC(CCCCN)C(=O)O (stereo not shown) [Pal-MO2-K-OH] (Palmitoyl-[Met(O2)]-Lys-OH; configuration not given here) | – | – | +457% | +226% | +270% | –
Pal-K-F-MO2-K-OH: Dioxygenated peptide compound, SEQ ID NO 31 (Palmitoyl-KF[Met(O2)]K-OH; SMILES CCCCCCCCCCCCCCCC(=O)N[C@@H](CCCCN)C(=O)N[C@@H](Cc1ccccc1)C(=O)N[C@@H](CCS(C)(=O)=O)C(=O)N[C@@H](CCCCN)C(=O)O) | +80% | +81% | – | – | – | –
Pal-K-T-F-MO2-NH2: Dioxygenated peptide compound, SEQ ID NO 32 (Palmitoyl-KTF[Met(O2)]-NH2; SMILES CCCCCCCCCCCCCCCC(=O)N[C@@H](CCCCN)C(=O)N[C@H](C(=O)N[C@@H](Cc1ccccc1)C(=O)N[C@@H](CCS(C)(=O)=O)C(N)=O)[C@@H](C)O) | +106% | +121% | +420% | +400% | +267% | –
CCCCCCCCCCCCCCCC(=O)NCCCCC(=O)NC(CCS(C)(=O)=O)C(N)=O (stereo not drawn) [Pal-Ava-MO2-NH2] | – | – | +667% | +557% | +495% | –
Pal-MO2-T-K-F-OH: Dioxygenated peptide compound, SEQ ID NO 29 | +111% | +148% | +456% | +520% | +218% | –
Pal-K-MO2-F-K-OH: Dioxygenated peptide compound, SEQ ID NO 34 (Palmitoyl-K[Met(O2)]FK-OH; SMILES CCCCCCCCCCCCCCCC(=O)N[C@@H](CCCCN)C(=O)N[C@@H](CCS(C)(=O)=O)C(=O)N[C@@H](Cc1ccccc1)C(=O)N[C@@H](CCCCN)C(=O)O) | +91% | – | – | – | – | –
Pal-K-Ava-MO2-K-OH: Dioxygenated peptide compound, SEQ ID NO 35 (Palmitoyl-K[Ava][Met(O2)]K-OH; SMILES CCCCCCCCCCCCCCCC(=O)N[C@@H](CCCCN)C(=O)NCCCCC(=O)N[C@@H](CCS(C)(=O)=O)C(=O)N[C@@H](CCCCN)C(=O)O) | +167% | – | – | – | – | +63%
CCCCCCCCCCCCCCCC(=O)NC(CCS(C)(=O)=O)C(=O)NCCCCC(N)=O (stereo not shown) [Pal-MO2-Ava-NH2] | – | – | +582% | +461% | +375% | –
Pal-K-T-MO2-K-OH: Dioxygenated peptide compound, SEQ ID NO 30 (Palmitoyl-KT[Met(O2)]K-OH; SMILES CCCCCCCCCCCCCCCC(=O)N[C@@H](CCCCN)C(=O)N[C@H](C(=O)N[C@@H](CCS(C)(=O)=O)C(=O)N[C@@H](CCCCN)C(=O)O)[C@@H](C)O) | +75% | +161% | +341% | +262% | +273% | –
Pal-K-MO2-Ava-K-OH: Dioxygenated peptide compound, SEQ ID NO 36 (Palmitoyl-K[Met(O2)][Ava]K-OH; SMILES CCCCCCCCCCCCCCCC(=O)N[C@@H](CCCCN)C(=O)N[C@@H](CCS(C)(=O)=O)C(=O)NCCCCC(=O)N[C@@H](CCCCN)C(=O)O) | – | – | – | – | – | +75%
